The values that follow come from patent publication US8461182B2, “7-piperidinoalkyl-3, 4-Dihydroquinolone derivative” (Taisho Pharmaceutical Co., Ltd., priority 2008, dated 2013).

pIC50: −log10 of the molar value. Structures can show the parent of a compound that is named as a salt.

One test deals with MCH1R.
Assay: not given
Conditions: NON-PATENT DOCUMENT 2; cited from earlier work.
Turning to `CN(C)c1nc(N[C@H]2CC[C@@H](NC(=O)c3ccc(F)c(F)c3)CC2)nc2ccccc12` [ATC0175], the “effects in experimental animal models” value is “antidepressive-like and anxiolytic-like effects”.

The target in the next test is T1, MCH1R (Homo sapiens, UniProt Q99705).
T1 construct: IC50; other: cells stably expressing non-endogenous active MCH1R; 50 nM MCH; Fluo-4 calcium, FDSS6000
The experiment in a line: Calcium Evaluation Test for MCH1R (FDSS assay, MCH-induced intracellular calcium increase). It counts as cell-based. Conditions: cells stably expressing non-endogenous active MCH1R; 50 nM MCH; Fluo-4 calcium, FDSS6000. An excerpt: Calcium Evaluation Test for MCH1R
An FDSS assay can measure the intracellular calcium concentration and can evaluate the Gq-coupled receptor activity using the calcium concentration as an index. For example, the assay can determine whether an analyte is an antagonist, an inverse agonist or an agonist for a Gq-coupled receptor. The FDSS6000™ system (Hamamatsu Photonics K.K.) is designed to perform evaluation based on functionality such as measurement of intracellular calcium for high-throughput screening. Intracellular calcium release by activation of a Gq-coupled receptor can be fluorometrically measured by incorporating a calcium indicator (such as Fluo4) into cells. On the other hand, the assay cannot measure the activation of Gi- and Go-coupled receptors, because the activation is not associated with calcium signaling pathways.
Intracellular fluorescence can be rapidly and successively measured in a 96-well microplate or a 384-well microplate using a fluorometric imaging plate reader system. FDSS6000™ can simultaneously measure fluorescence in all wells sensitively, accurately and by seconds. This system is ideal for functional analysis in cells such as monitoring of an intracellular calcium flow generated within several seconds after activation of a Gq-coupled receptor.
On the day before the test, cells stably expressing non-endogenous active MCH1R were seeded into a 96-well microplate at 3×10^4 cells per well. 100 μL per well of a medium (Dulbecco's modified Eagle medium containing 10% fetal bovine serum, 2 mM glutamine, 1 mM sodium pyruvate and 0.5 mg/mL G418, pH=7.4) was used for culture. On the day of the test, the medium was removed and an assay buffer {Hank's balanced salt solution containing 20 mM HEPES, 0.5 mM probenecid, 0.05 mg/mL amaranth and 0.2% bovine serum albumin (BSA), pH=7.4} containing 2 μM Fluo-4-AM and 0.04% Pluronic F127 was added at 100 μL per well, followed by incubation in a 5% CO2 incubator at 37° C. for 30 minutes. An assay buffer containing each concentration of MCH was added at 50 μL per well, and transient changes in the intracellular calcium concentration induced by MCH were monitored using FDSS6000™ at Ex. 488 nm and Em. 530 nm for 180 seconds. In testing the antagonistic activity of the analyte, MCH was added to a final concentration of 50 nM. An inhibition curve was prepared with various concentrations of the analyte, and the concentration of the analyte inhibiting 50% of the increase in intracellular calcium when 50 nM MCH was added (IC50 value) was calculated using data analysis software Origin Ver. 6.
In general terms: A change in cytosolic calcium serves as a functional read-out for many receptors and channels.
As a reminder, the pIC50 is −log10 of the IC50, conventionally taken in molar units. Regarding `COc1cccc(C(=O)NC2CCN(Cc3ccc4c(c3)NC(=O)CC4)CC2)c1` [Example 2, 3-methoxy-N-{1-[(2-oxo-1,2,3,4-tetrahydroquinolin-7-yl)methyl]piperidin-4-yl}benzamide monohydrochloride, monohydrate], the negative-log IC50 (pIC50) is 8.21. Regarding `O=C1CCc2ccc(CN3CCC(NC(=O)c4cccc(F)c4)CC3)cc2N1` [Example 3, 3-fluoro-N-{1-[(2-oxo-1,2,3,4-tetrahydroquinolin-7-yl)methyl]piperidin-4-yl}benzamide], the negative-log IC50 (pIC50) is 7.96. Same read-out and setting: the result for `O=C1CCc2ccc(CN3CCC(NC(=O)c4ccc(F)c(F)c4)CC3)cc2N1` [Example 5, 3,4-difluoro-N-{1-[(2-oxo-1,2,3,4-tetrahydroquinolin-7-yl)methyl]piperidin-4-yl}benzamide] reads 8.82; that for `O=C1CCc2ccc(CN3CCC(NC(=O)c4cccc(Cl)c4)CC3)cc2N1` [Example 7, 3-chloro-N-{1-[(2-oxo-1,2,3,4-tetrahydroquinolin-7-yl)methyl]piperidin-4-yl}benzamide], 8.04. Same read-out and setting: the result for `Cc1cccc(C(=O)NC2CCN(Cc3ccc4c(c3)NC(=O)CC4)CC2)c1` [Example 8, 3-methyl-N-{1-[(2-oxo-1,2,3,4-tetrahydroquinolin-7-yl)methyl]piperidin-4-yl}benzamide] reads 7.72; that for `COc1cc(OC)cc(C(=O)NC2CCN(Cc3ccc4c(c3)NC(=O)CC4)CC2)c1` [Example 19, 3,5-dimethoxy-N-{1-[(2-oxo-1,2,3,4-tetrahydroquinolin-7-yl)methyl]piperidin-4-yl}benzamide], 8.41; that for `O=C1CCc2ccc(CN3CCC(NC(=O)C(c4ccccc4)c4ccccc4)CC3)cc2N1` [Example 27, N-{1-[(2-oxo-1,2,3,4-tetrahydroquinolin-7-yl)methyl]piperidin-4-yl}-2,2-diphenylacetamide], 7.71. The same measure, in the same setting: the result for `CC(=O)c1cccc(C(=O)NC2CCN(Cc3ccc4c(c3)NC(=O)CC4)CC2)c1` [Example 32, 3-acetyl-N-{1-[(2-oxo-1,2,3,4-tetrahydroquinolin-7-yl)methyl]piperidin-4-yl}benzamide] reads 7.97. For the molecule `O=C1CCc2ccc(CN3CCC(NC(=O)c4cc(F)c(F)c(F)c4)CC3)cc2N1` [Example 33, 3,4,5-trifluoro-N-{1-[(2-oxo-1,2,3,4-tetrahydroquinolin-7-yl)methyl]piperidin-4-yl}benzamide], the pIC50 was 8.71. In the case of `N#Cc1cccc(C(=O)NC2CCN(Cc3ccc4c(c3)NC(=O)CC4)CC2)c1` [Example 37, 3-cyano-N-{1-[(2-oxo-1,2,3,4-tetrahydroquinolin-7-yl)methyl]piperidin-4-yl}benzamide], the negative-log IC50 (pIC50) was 7.74.

For the molecule `O=C1CCc2ccc(CN3CCC(NC(=O)c4cncc(Cl)c4)CC3)cc2N1` [Example 38, 5-chloro-N-{1-[(2-oxo-1,2,3,4-tetrahydroquinolin-7-yl)methyl]piperidin-4-yl}pyridine-3-carboxamide], the pIC50 is 7.73. In the case of `O=C1CCc2ccc(CN3CCC(NC(=O)COc4ccc(F)c(Cl)c4)CC3)cc2N1` [Example 46, 2-(3-chloro-4-fluorophenoxy)-N-{1-[(2-oxo-1,2,3,4-tetrahydroquinolin-7-yl)methyl]piperidin-4-yl}acetamide], the pIC50 is 8.36.

As to `CC(c1ccc2c(c1)NC(=O)CC2)N1CCC(NC(=O)c2ccc(F)c(Cl)c2)CC1` (stereo not drawn) [Example 51, 3-chloro-4-fluoro-N-{1-[1-(2-oxo-1,2,3,4-tetrahydroquinolin-7-yl)ethyl]piperidin-4-yl}benzamide], the pIC50 was 8.97.

As to `COc1cccc(C(=O)NC2CCN(Cc3cc4c(cc3F)CCC(=O)N4)CC2)c1` [Example 53, N-{1-[(6-fluoro-2-oxo-1,2,3,4-tetrahydroquinolin-7-yl)methyl]piperidin-4-yl}-3-methoxybenzamide], the negative logarithm of the IC50 (pIC50) was 7.41.
